Assay results reported in publication PMC9030254, “Target Hopping from Protein Kinases to PXR: Identification of Small-Molecule Protein Kinase Inhibitors as Selective Modulators of Pregnane X Receptor from TüKIC Library” (Cells, 2022).

Tests used:
Assay in all cases: Kinase profiling
Assay type in all cases: biochemical
BTK = biological target: T1, BTK (Homo sapiens, UniProt Q06187)
T1 construct: purchased ProQinase (Freiburg, Germany)
Protocol: (§1) The analysis was performed by ProQinase (Freiburg, Germany).

EIF2AK3 = biological target: T2, EIF2AK3 (Homo sapiens, UniProt Q9NZJ5)
T2 construct: purchased ProQinase (Freiburg, Germany)
T2 sequence (Q9NZJ5 30-1116): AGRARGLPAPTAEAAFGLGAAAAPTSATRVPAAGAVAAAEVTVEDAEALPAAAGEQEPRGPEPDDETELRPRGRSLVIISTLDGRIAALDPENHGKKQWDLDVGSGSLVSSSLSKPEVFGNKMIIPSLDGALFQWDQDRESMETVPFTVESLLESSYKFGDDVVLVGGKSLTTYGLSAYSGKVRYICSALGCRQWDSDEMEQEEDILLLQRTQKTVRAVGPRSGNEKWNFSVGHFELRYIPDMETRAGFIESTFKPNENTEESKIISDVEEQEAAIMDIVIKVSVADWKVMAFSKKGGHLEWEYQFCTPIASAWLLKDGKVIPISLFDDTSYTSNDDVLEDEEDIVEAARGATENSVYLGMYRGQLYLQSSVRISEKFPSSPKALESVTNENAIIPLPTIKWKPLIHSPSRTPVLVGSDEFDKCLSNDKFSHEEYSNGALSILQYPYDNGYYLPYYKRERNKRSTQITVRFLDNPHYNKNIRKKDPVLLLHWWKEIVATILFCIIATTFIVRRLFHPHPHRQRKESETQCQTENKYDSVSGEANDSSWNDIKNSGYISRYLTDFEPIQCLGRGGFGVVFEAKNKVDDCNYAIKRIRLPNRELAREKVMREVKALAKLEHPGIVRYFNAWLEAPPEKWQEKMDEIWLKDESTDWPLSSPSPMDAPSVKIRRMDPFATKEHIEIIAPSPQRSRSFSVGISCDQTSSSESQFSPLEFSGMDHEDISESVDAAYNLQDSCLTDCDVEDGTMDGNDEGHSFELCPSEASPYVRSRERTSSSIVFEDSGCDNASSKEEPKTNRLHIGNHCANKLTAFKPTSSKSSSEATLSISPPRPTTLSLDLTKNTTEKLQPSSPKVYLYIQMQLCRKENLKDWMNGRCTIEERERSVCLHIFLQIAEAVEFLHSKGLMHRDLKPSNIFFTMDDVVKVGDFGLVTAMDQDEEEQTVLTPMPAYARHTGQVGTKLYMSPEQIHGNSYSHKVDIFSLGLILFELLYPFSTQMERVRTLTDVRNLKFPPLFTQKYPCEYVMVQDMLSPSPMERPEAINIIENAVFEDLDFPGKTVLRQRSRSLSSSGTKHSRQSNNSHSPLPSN
Protocol: as §1

ERK1 = biological target: T3, ERK1 (Homo sapiens, UniProt P27361)
T3 construct: purchased ProQinase (Freiburg, Germany)
Protocol: as §1

LCK = biological target: T4, LCK (Homo sapiens, UniProt P06239)
T4 construct: purchased ProQinase (Freiburg, Germany)
Protocol: as §1

PRKG2 = biological target: T5, PRKG2 (Homo sapiens, UniProt Q13237)
T5 construct: purchased ProQinase (Freiburg, Germany)
T5 sequence (Q13237 1-762): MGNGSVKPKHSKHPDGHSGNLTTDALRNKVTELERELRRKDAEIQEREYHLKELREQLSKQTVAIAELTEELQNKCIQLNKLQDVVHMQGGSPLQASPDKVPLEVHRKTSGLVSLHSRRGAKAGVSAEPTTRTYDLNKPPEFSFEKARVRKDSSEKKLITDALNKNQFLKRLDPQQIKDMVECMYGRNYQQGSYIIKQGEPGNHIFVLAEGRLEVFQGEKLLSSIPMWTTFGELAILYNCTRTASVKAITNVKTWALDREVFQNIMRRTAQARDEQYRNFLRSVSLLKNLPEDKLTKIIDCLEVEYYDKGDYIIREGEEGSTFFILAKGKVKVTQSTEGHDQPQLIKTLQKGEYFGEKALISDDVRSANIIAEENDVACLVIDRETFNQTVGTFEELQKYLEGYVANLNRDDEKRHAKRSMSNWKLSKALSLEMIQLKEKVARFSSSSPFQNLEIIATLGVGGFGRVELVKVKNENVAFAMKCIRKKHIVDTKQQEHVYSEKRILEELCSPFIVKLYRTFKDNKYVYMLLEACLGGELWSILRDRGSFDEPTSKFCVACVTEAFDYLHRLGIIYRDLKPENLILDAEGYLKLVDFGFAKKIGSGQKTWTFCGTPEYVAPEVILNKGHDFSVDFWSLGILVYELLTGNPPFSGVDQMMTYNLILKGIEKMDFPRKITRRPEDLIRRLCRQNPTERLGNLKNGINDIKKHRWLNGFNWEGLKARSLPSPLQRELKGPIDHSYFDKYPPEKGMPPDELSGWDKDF
Protocol: as §1

SGK1 = biological target: T6, SGK1 (Homo sapiens, UniProt O00141)
T6 construct: purchased ProQinase (Freiburg, Germany)
T6 sequence (O00141 1-431): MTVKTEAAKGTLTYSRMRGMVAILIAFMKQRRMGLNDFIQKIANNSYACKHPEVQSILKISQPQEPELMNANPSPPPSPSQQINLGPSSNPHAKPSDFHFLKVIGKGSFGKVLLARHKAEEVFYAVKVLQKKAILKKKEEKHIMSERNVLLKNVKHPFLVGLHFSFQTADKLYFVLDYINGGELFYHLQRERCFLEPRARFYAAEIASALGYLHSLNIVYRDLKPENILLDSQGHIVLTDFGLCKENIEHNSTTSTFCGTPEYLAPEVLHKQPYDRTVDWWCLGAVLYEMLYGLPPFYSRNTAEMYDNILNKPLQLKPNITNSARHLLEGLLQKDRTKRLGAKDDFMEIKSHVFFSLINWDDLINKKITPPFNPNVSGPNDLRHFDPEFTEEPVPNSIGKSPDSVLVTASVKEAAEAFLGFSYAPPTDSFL
Protocol: as §1

p38gamma = biological target: T7, p38gamma (Homo sapiens, UniProt P53778)
T7 construct: purchased ProQinase (Freiburg, Germany)
T7 sequence (P53778 1-367): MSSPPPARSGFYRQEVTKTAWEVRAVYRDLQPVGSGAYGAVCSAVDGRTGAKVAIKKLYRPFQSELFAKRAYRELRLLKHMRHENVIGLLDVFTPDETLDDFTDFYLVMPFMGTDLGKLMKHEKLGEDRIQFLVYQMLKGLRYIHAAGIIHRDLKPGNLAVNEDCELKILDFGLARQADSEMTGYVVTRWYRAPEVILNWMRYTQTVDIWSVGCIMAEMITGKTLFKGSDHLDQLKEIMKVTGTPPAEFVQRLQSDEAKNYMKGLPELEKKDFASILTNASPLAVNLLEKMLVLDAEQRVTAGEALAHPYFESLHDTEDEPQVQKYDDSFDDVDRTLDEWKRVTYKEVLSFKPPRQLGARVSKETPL
Protocol: as §1

T1 sequence (Q06187 whole entry): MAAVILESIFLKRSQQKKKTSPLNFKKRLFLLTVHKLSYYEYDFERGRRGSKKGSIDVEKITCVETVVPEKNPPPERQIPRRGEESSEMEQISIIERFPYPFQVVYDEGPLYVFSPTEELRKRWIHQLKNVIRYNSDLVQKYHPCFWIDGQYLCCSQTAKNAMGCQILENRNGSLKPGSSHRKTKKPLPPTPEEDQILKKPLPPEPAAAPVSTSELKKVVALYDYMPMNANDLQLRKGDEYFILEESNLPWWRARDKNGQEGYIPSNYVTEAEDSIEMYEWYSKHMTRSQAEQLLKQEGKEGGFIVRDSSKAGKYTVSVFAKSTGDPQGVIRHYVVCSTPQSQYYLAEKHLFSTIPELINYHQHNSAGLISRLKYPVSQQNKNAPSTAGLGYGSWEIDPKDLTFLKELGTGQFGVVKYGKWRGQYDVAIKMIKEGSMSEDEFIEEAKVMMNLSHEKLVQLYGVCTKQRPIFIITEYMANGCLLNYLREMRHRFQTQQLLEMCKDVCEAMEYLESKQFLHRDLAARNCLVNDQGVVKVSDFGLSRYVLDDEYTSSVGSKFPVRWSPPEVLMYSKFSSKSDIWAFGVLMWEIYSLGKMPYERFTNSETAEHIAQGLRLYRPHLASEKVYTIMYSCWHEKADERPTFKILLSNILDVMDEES
T3 sequence (P27361 whole entry): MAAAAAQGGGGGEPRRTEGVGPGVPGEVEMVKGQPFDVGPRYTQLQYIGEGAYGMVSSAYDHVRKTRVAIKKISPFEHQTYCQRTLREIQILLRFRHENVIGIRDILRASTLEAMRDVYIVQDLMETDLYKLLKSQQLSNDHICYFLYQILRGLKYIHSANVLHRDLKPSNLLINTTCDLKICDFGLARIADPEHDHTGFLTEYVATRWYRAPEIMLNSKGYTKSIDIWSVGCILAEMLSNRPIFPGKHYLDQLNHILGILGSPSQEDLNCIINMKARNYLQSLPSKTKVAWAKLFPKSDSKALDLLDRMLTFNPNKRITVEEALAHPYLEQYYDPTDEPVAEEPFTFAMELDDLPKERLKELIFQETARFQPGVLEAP
T4 sequence (P06239 whole entry): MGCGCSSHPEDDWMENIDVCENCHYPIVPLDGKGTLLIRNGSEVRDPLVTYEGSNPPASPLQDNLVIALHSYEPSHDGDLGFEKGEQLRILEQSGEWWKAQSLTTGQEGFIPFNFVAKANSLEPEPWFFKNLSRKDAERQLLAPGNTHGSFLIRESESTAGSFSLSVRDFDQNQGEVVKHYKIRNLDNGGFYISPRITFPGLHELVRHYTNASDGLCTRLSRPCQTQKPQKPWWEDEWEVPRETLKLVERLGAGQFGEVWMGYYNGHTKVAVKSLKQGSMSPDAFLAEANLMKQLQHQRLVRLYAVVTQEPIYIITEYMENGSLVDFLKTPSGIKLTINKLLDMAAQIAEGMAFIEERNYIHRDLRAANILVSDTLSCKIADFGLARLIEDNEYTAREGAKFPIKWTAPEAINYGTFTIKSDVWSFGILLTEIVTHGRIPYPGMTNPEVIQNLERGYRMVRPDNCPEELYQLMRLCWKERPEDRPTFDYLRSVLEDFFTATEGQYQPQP

Row | SMILES | Residual activity (BTK; 1.0E-05 M) | Residual activity (BTK; 1.0E-06 M) | Residual activity (EIF2AK3; 1.0E-05 M) | Residual activity (EIF2AK3; 1.0E-06 M) | Residual activity (ERK1; 1.0E-05 M) | Residual activity (ERK1; 1.0E-06 M) | Residual activity (LCK; 1.0E-05 M) | Residual activity (LCK; 1.0E-06 M) | Residual activity (PRKG2; 1.0E-05 M) | Residual activity (PRKG2; 1.0E-06 M) | Residual activity (SGK1; 1.0E-05 M) | Residual activity (SGK1; 1.0E-06 M) | Residual activity (p38gamma; 1.0E-05 M) | Residual activity (p38gamma; 1.0E-06 M)
1 | O=C(Cc1ccccc1)Nc1ccc(F)c(Nc2ccc3c(c2)CCCCC3=O)c1 [Compound 100] | 78 % of control | 99 % of control | 102 % of control | 94 % of control | 99 % of control | 99 % of control | 66 % of control | 107 % of control | 83 % of control | 94 % of control | 85 % of control | 108 % of control | 84 % of control | 93 % of control
2 | O=C(Nc1ccc(F)c(Nc2ccc3c(c2)CCCCC3=O)c1)c1cccc(F)c1 [Compound 109] | 91 % of control | 99 % of control | 92 % of control | 93 % of control | 102 % of control | 100 % of control | 84 % of control | 102 % of control | 84 % of control | 88 % of control | 97 % of control | 99 % of control | 52 % of control | 88 % of control
